Counter-ions that a name gives are not always drawn. Like-named read-outs stand apart in the source and are kept apart here.

For data set [1] the following is noted: systemic administration, humans; cited from earlier work.
In data set [2] the test system is full thickness dermal scar around the elbow. Briefly: Example 1: burn scar-elbow. The following applies: 5.0 mM BAPN-F and/or 20-25 mM D-penicillamine jelly or BAPN-F gauze (40 mg/100 cm^2); four to six weeks. It counts as in vivo, human. The protocol: This restricts use. The hard scar is surgically "released" under general anesthesia by cutting in several places with or without a skin graft. The patient then has a lathyrogen applied and is placed in an elbow dynamic splint. This allows the elbow to be protected and at the same time to fully exercise the joint on a daily basis with or without the supervision of a physical therapist.
A lathyrogen jelly with 5.0 mM of BAPN-F and/or 20-25 mM D-penicillamine or a BAPN-F ]impregnated gauze (40 mg/100 cm^2 of gauze) is continuously applied to the wound during its healing phase beginning 4-8 days after surgical treatment and continued for four to six weeks in combination with physical therapy.

Data set [3] relates to transection of the membranous urethra. As to the kind of experiment: Example 8: urethra-trauma. It counts as in vivo, human males. The following applies: coated silicone catheter; about six weeks. From the text: Following fractured hips, 5-10% of human males suffer transection of the membranous urethra as it leaves the bladder. This transection requires primary anastamosis with catheter stinting, often resulting in severe scar formation and secondary bladder outlet obstruction. Balloon dilation (pressure balloon) to create new wound tissue may be performed or direct surgical resection removes the narrowed scar tissue. After one week, the original bladder catheter is exchanged for a silicone catheter coated with either BAPN-F or another lathyrogenic agent such as D-Penicillamine, which inhibits cross-linking (strong bonding) between scar collagen fibers. The coated catheter is continuously maintained in place and changed once a week for about six weeks during the healing phase.

The subject of a further data set is collagen crosslinking. The note with it: cited from earlier work.
The subject of another data set is tracheal injury. Briefly: Example 10: trachea. In kind it is in vivo, human. The note with it: silastic stint coated with 5.0 mM BAPN-F or D-Penicillamine; five or six weeks. The procedure:
The patient suffering tracheal injury either due to a tracheostomy on an emergency basis or secondary to an automobile accident has primary anastomosis of the trachea resulting in a severe scar and impairment of the airway. The scar is excised and an endotracheal silastic stint coated with 5.0 mM BAPN-F or D-Penicillamine is put in place after one week and continuously maintained and changed on a weekly basis for five or six weeks during the healing phase. The lathyrogen is incorporated in the newly formed and healing wound where it allows the newly formed scar to be soft, plastic-like and conform to the diameter of the endotracheal stint.

Data set [4] has as its system skin and other surrounding tissues. The note with it: cited from earlier work.
Data set [5] can be described thus: Decomposition of BAPN in ointment, gels or solutions. In kind it is physicochemical. The note with it: decomposition into ammonia, aminonitrile and CO2.
The test system of data set [6] is scarred and blocked fallopian tubes. As to the kind of experiment: Example 2: fallopian tube stenosis-infertility. It counts as in vivo, human. The following applies: BAPN-coated silastic tube stint; four to six week healing phase. An excerpt:
A patient having scarred and blocked fallopian tubes as a result of infection has incisions made in the scar tissue and a BAPN- coated silastic tube stint placed in the fallopian tube after one week and left in place during the healing phase. The stint is continuously maintained in contact with the fresh wound and is changed two or three times during the four to six week healing phase as the lathyrogenic agent leaches off the surface of the silastic stint and is incorporated into the newly healing scar. The newly formed scar takes the shape of the stint.

Data set [7] concerns full thickness burn of the hand. As to the kind of experiment: Example 5: burn scar-hand. It counts as in vivo, human. The following applies: jelly containing 5 mM/L BAPN-F; four to six weeks. The protocol:
A patient with a well healed full thickness burn of the hand has severe scarring of the fingers and hand in a claw-like form. The old scars are surgically released to create full mobility of the joints. The hand is placed in a "dynamic splint." The splint contains rubber band fixation to a rigid frame allowing the patient to exercise their fingers through a full range of motion. During the healing phase and on a daily basis, a jelly containing 5 mM/L of the lathyrogenic agent BAPN-F is continuously applied to the surgically "released" areas. The patient continues to exercise and use the dynamic splint during the healing phase over the next four to six weeks. […] The dynamic splint is removed. Healing is complete and range of motion restored.

In data set [8] the test system is common bile duct stenosis. As to the kind of experiment: Example 11: common bile duct stenosis. It counts as in vivo, human. The following applies: BAPN-F coated silastic tube; six weeks. An excerpt:
The scar is partially resected and after one week an original silastic stint is exchanged for an intraluminal silastic tube coated with BAPN-F with one arm of the tube protruding into the duodenum. The BAPN-F leaches off the silastic tube and is incorporated into the newly formed scar, which is soft because BAPN-F blocks cross-linking. The tube is continuously maintained in place and on a weekly basis the patient returns to the gastroenterology lab where, under direct manipulation, the tube is exchanged every week for six weeks. Once healing is complete the tube is removed and the new lumen of the common bile duct is preserved. The patient is no longer jaundiced and fluids from the liver can pass into the duodenum uninhibited.

The test system of another data set is urethral stenosis. As to the kind of experiment: Example 7: urethra-infection. In kind it is in vivo, human. The note with it: BAPN-F bonded silicone catheter; about six weeks. From the text: The old scar in the urethra is opened under direct surgical resection. Immediately afterward a silicone urethral bladder catheter is inserted. After one week, this catheter is exchanged for one with the lathyrogenic agent BAPN-F bonded onto its surface. The coated catheter is continuously maintained in place and changed ever week for about six weeks during the healing phase. During the healing phase new scar tissue is laid down. However, its strength is beneficially altered by the lathyrogen BAPN-F which inhibits the bonding of one protein scar fiber to the next protein scar fiber allowing the wound to be molded in the shape of the intraluminal stint (urinary bladder catheter).

In another data set the test system is burns in the esophagus. The following applies: dogs, cited from earlier work.
For data set [9], the system named is circumferential suture line scar of bladder and urethra. Briefly: Example 4: urethra-prostatic cancer. In kind it is in vivo, human. The note with it: silicone catheter coated with 5.0 mM BAPN-F; three weeks. The procedure:
A patient with prostatic cancer detected with sonography and a candidate for total prostatectomy has the prostate removed and the cuff of the bladder sewn to the most proximal remaining portion of the urethra. This circumferential suture line often progresses to heavy scarring preventing complete emptying of the bladder. The scar is cut away under anesthesia and direct resectoscope vision and immediately stinted with a silicone catheter coated with 5.0 mM BAPN-F. The catheter remains in continuous direct contact with the new wound tissue during healing. The BAPN-F leaches from the surface of the catheter, thereby inhibiting hardening of the healing scar during the next three weeks. The catheter is changed on a weekly basis to renew the BAPN-F supply.

The test system of data set [10] is peritendinous, perineural adhesions. As to the kind of experiment: Clinical effect of topically applied BAPN-F gauze. In kind it is in vivo. The following applies: 20-40 mg BAPN-F per 100 cm^2 of gauze, placed wet over the lesions. An excerpt: In order to obtain long shelf life of BAPN medications the drug should be kept dry and out of contact with water. For this reason administration of BAPN as an ointment, in gels or solutions is rather impractical, as the medication has to be freshly prepared every 6-8 weeks. 6-8 weeks is the time of detection of the first decomposition product of BAPN into ammonia, aminonitrile and CO2. This invention can overcome the above problem by incorporating a solution with the known concentration of BAPN into the dressing material (gauze, collagen sponge) with a known surface area. The dressing material may be soaked with a known volume of BAPN solution, frozen and freeze dried to complete dryness.

For data set [11] the following is noted: rabbit, in vivo. The procedure: This example illustrates the efficacy of collagen- resorcinol-glutaraldehyde polymer as a BAPN-F delivery system. One hundred parts of medical grade purity collagen, prepared by a known procedure, is mixed with three hundred parts of water and heated until collagen dissolves to form a viscous solution. […] One milliliter of this mixture per kilogram of rabbit body weight was injected under the skin, after quick mixing of the appropriate volume of the mixture with 1/10 of its volume of 3 percent glutaraldehyde in a 5 ml plastic syringe. […] The rate of the release of the BAPN-F from the polymer was studied by direct measuring of the amount of BAPN-F in the blood, collected from the ear vein of the rabbit at time intervals shown in Table 1.
For comparison, the same amount of BAPN-F was injected under the skin of control rabbits as water solution.

Regarding `CC(C)(S)[C@@H](N)C(=O)O` [D-Penicillamine], the “systemic tolerance (therapeutic vs. toxic concentrations)” value in data set [1] was “therapeutic and toxic concentrations are so close that they cannot be systemically tolerated by humans”. Also, in data set [2], the “range of motion at the elbow” value is reported as “the patient resumes full range of motion at the elbow”. In [3], the “opening after catheter removal” value was “a normal sized opening is present”. Besides, in the data set on collagen crosslinking, the inhibition of crosslinking entry is listed as “crosslinking can be inhibited”. For the same compound, the “scarring and airway dynamics” value in the data set on tracheal injury is “no further scarring takes place, the medication and stint is discontinued and the patient returns to normal airway dynamics”.
Turning to `N#CCCN` [BAPN, Beta-aminopropionitrile], the “penetration of skin and other surrounding tissues (thickness)” value in [4] is listed as “a few millimeters in thickness”. Besides, the “systemic tolerance (therapeutic vs. toxic concentrations)” value in data set [1] was “therapeutic and toxic concentrations are so close that they cannot be systemically tolerated by humans”. Also, the “time of detection of the first decomposition product” value in data set [5] is on record as 6-8 weeks. Moreover, the “opening of the fallopian tube” value in data set [6] is “the opening of the fallopian tube is preserved and egg and sperm transport can now cross the previously blocked fallopian tube”. For the same compound, the inhibition of crosslinking result with collagen crosslinking is recorded as “crosslinking can be inhibited”.
For `N#CCCN` [BAPN-F, Beta-aminopropionitrile fumarate], in data set [7], the “range of hand motion” value was “full range of motion without further restriction of hand motion”. In addition, in data set [8], the “lumen of the common bile duct, jaundice” value is given as “the new lumen of the common bile duct is preserved. The patient is no longer jaundiced”. For the same compound, the “range of motion at the elbow” value in data set [2] is “the patient resumes full range of motion at the elbow”. Moreover, the “urination after stint removal” value in the data set with urethral stenosis is reported as “normal unobstructed urination can proceed”. In addition, the “opening after catheter removal” value in data set [3] is “a normal sized opening is present”. For the same compound, in the data set on burns in the esophagus (esophageal burns), the “ingestion of food during treatment” value is “severe problems in the ingestion of food”. In addition, the toxicity entry in the data set with burns in the esophagus (systemically introduced) is “serious toxicity problems”. The “scarring and airway dynamics” value with tracheal injury is “no further scarring takes place, the medication and stint is discontinued and the patient returns to normal airway dynamics”. For the same compound, the “scarring of bladder-urethra suture line” value in data set [9] is on record as “no new scarring takes place”. Further, the “clinical effect on fibrotic adhesions” value in data set [10] is recorded as “evident clinical effect of a topically applied gauze-placed wet over the lesions, such as peritendinous, perineural adhesions with prevention or reduction of the incidence of fibrotic adhesions”.
Consider Water, for which, in data set [11], the “time to maximum in serum” value is “reaches a maximum in serum within two hours after injection”. The “Plasma Level (BAPN-F)” value amounted to 3.2 in data set [11] (120 min); 2.9 in [11] (240 min); 2.1 in [11] (360 min); 1.0 in data set [11] (600 min); 0.1 in [11] (960 min); 0 in [11] (2880 min). Also, the “Plasma Level (BAPN-F)” value in [11] (4320 min), in data set [11] (5760 min) and in [11] (10080 min) was 0 each time.

The values are drawn from patent US5120322A, “Method and apparatus for treatment of fibrotic lesions” (Lathrotec, Inc., priority 1990, dated 1992).
